Consider four molecules from patent US20210386791A1, “METHODS OF CELLULAR REPROGRAMMING” (TissueTech, Inc., priority 2018, published 2021).

Holding throughout (type): cell-based
In assay [1] the test system is human corneal fibroblasts (HCF). As to the kind of experiment: Reversal of HCF to keratocytes on immobilized HC-HA/PTX3 with or without SB431542 or AMD3100. How it is done:
A total of 86 human corneas from individuals aged 18-76 years and maintained at 4° C. in Optisol (Chiron Vision, Irvine, Calif.) for less than 7 days after death were obtained from the Florida Lions Eye Bank (Miami, Fla.) and handled according to the declaration of Helsinki. HCF were isolated and cultured. Briefly, the sheets of the epithelium and the endothelium were removed from corneas, the stroma sections were cut into cubes of approximately 1 mm3, incubated in 2 mg/ml collagenase for 16 h at 37° C., and then placed in a culture medium consisting of DMEM supplemented with 10% fetal bovine serum containing […]. The culture medium was refreshed twice a week. The cells cultured to passage 3 were used for all experiments. To reverse fibroblasts or myofibroblasts into keratocytes, fibroblasts or myofibroblasts were cultured on immobilized HC-HA/PTX3 in DMEM+10% FBS for 3 days using the samples from the cells on plastic and HA as the controls. Some of the cell cultures were extended to up to 7 days of culture to monitor the expression of α-SMA formation. Total RNAs were extracted using RNeasy Mini Kit (Qiagen) and reverse-transcribed using High Capacity Reverse Transcription Kit (Applied Biosystems). cDNA was amplified by real-time RT-PCR using specific primer-probe mixtures and DNA polymerase in Quant Studio 5 Real-time PCR System (Applied Biosystems). Real-time RT-PCR profile consisted of 10 min of initial activation at 95° C., followed by 40 cycles of 15 s denaturation at 95° C., and 1 min annealing and extension at 60° C. The genuine identity of each PCR product was confirmed by the size determination using 2% agarose gels followed by ethidium bromide staining together with PCR marker according to EC3 Imaging System (BioImaging System, Upland, Calif.). The samples of human corneal fibroblasts, myofibroblasts and corneal keratocytes were air-dried and fixed in 4% formaldehyde, pH 7.0, for 15 min at room temperature, rehydrated in PBS, incubated with 0.2% Triton X-100 for 15 min, and rinsed 3 times with PBS for 5 min each. […] After three washes with PBS, they were incubated with corresponding Alexa-Fluor-conjugated secondary IgG (all 1:100 dilution) for 60 min. The samples were then counterstained with Hoechst 33342 and analyzed in Zeiss LSM 700 confocal microscope (Thornhood, N.Y.). Corresponding mouse and rabbit sera were used as negative controls for primary monoclonal and polyclonal antibodies, respectively. Cell lysates were prepared in RIPA buffer and resolved on 4-15% (w/v) gradient acrylamide gels under denaturing and reducing conditions for Western blotting. The protein extracts were transferred to the nitrocellulose membrane, which was then blocked with 5% (w/v) fat-free milk in TBST [50 mM Tris-HCl, pH 7.5, 150 mM NaCl, 0.05% (v/v) Tween-20], followed by sequential incubation with the specific primary antibody against keratocan and its respective horseradish peroxidase (HRP)-conjugated secondary antibody using β-actin as the loading control. Immunoreactive proteins were detected with Western Lighting Chemiluminescence (PerkinElmer, Waltham, Mass.).

Assay [2] has the same test system. Kind of assay: Timing course analysis of SDF1/CXCR4 and BMP signaling in HCF.
In assay [3] the test system is P10 LNC (human limbal niche cells). Kind of assay: P10 LNC on coated MG with soluble HC-HA/PTX3 with or without AMD3100, LDN-193189 or BMP receptor siRNAs. As to conditions: for upregulation of CXCR4 transcript by soluble HC-HA/PTX3: with CXCR4 inhibitor. As for the experimental part: Upon 80% confluence, P10 LNC cultured on coated Matrigel™ (MG) were pre-treated with 0.1% DMSO with or without 20 μg/mL AMD3100 or 100 nM LDN-193189 for 30 min before being trypsinized and seeded at 2×10^5/mL on coated MG in MESCM containing 20 μg/mL of AMD3100 or 100 nM LDN-193189 with 25 μg/mL soluble HC-HA/PTX3 for another 48 h. For the siRNA knockdown, 80% confluent P10 LNC on 6-well coated MG were subjected to transfection by mixing 200 μl of serum-free, antibiotic-free MESCM with 4 μL of HiPerFect siRNA transfection reagent (final dilution, 1:300) and 6 μl of 20 μM of scRNA or siRNAs for BMPR1A, BMPR1B, BMPR2, and ACVR1 at the final concentration of 100 nM, drop-wise, followed by culturing in 1 mL of fresh MESCM at 37° C. for 24 h before soluble HC-HA/PTX3 was added at a final concentration of 25 μg/mL in the MESCM medium.
RNA extract was reverse transcribed to cDNA with reverse-transcribed using High Capacity Reverse Transcription Kit (Applied Biosystems, Foster City, Calif.) using primers listed in Supplementary Table S3. The resultant cDNAs were amplified by specific TaqMan gene expression assay mix and universal PCR master mix in QuantStudio™ 5 Real Time PCR System (ThermoFisher, Santa Clara, Calif.) with real-time RT-PCR profile consisting of 10 min of initial activation at 95° C., followed by 40 cycles of 15 sec denaturation at 95° C., and 1 min annealing and extension at 60° C. The relative gene expression data were analyzed by the comparative CT method (MET). All assays were performed in triplicate. The results were normalized by glyceraldehyde 3-phosphate dehydrogenase (GAPDH) as an internal control.
Single cells of LNC at different passages were harvested with 0.05% trypsin and 1 mM EDTA at 37° C. for 10 min and prepared for cytospin using Cytofuge (StatSpin Inc., Norwood, Mass.) at 1000 rpm for 8 min. Cells were fixed with 4% formaldehyde, pH 7.0, for 15 min at room temperature, permeabilized with 0.2% Triton X-100 in PBS for 15 min and blocked with 2% bovine serum albumin (BSA) for 1 h before incubated with primary antibodies for 16 h at 4° C. After 3 washes with PBS, the corresponding Alexa Fluor-conjugated secondary IgG (all 1:100 dilution) were incubated for 60 min and 3 washing with PBS. After 3 washes with PBS, the second primary antibodies was incubated for 60 min and followed with the corresponding Alex Fluor-conjugated secondary IgG. The nucleus was counterstained with Hoechst 33342 before being analyzed with Zeiss LSM 700 confocal microscope (Carl Zeiss, Thornwood, N.Y.). Corresponding mouse and rabbit sera were used as negative controls for primary monoclonal and polyclonal antibodies, respectively.

Assay [4] deals with human corneal fibroblasts (HCF). Kind of assay: P3 HCF on plastic with or without immobilized HA or HC-HA/PTX3, with or without TGFβ1: mRNA, ELISA, Western blot, immunostaining. The settings on record: with TGFβ1. How it is done: A total of 89 human corneas from individuals aged 18-76 years and maintained at 4° C. in Optisol (Chiron Vision, Irvine, Calif.) for less than 7 days after death were obtained from the Florida Lions Eye Bank (Miami, Fla.) and handled according to the declaration of Helsinki. HCF were isolated and cultured. Epithelial and endothelial cells were removed from corneas, the stroma was cut into cubes of approximately 1 mm^3, incubated in 2 mg/ml collagenase for 16 h at 37° C., and then placed in a culture medium consisting of Dulbecco's modified Eagle's medium (DMEM) supplemented with 10% fetal bovine serum containing […]. The culture medium was changed twice a week. The morphology of the cells was monitored by Nikon Eclipse TS 100 microscope (Melville, N.Y.). Cells cultured to passage 3 (P3) were used for all experiments.
Human corneal fibroblasts (P3) were seeded on plastics with or without immobilized HC-HA/PTX3 complex for 72 h in DMEM+10% FBS, then serum starved for 24 h and treated with or without TGFβ1 for 24 h before being harvested for mRNA quantitation or immunostaining. For determination of protein of TGFβ receptor or p75NTR, the cells were treated with or without TGF-β1 for 48 h before collection of protein samples because the protein expression lags behind mRNA expression. For TGF-β1 ELISA, the cells were treated with or without TGF-β1 for 24 h, and then cultured in the fresh medium for another 24 h. The supernatants were collected for TGFβ1 ELISA. For TGFβ2 and TGFβ3 ELISA, the cells were treated with or without TGFβ1 for 48 h. Certain HCF were seeded on glass in DMEM+10% FBS for 24 h, then in DMEM+ITS (insulin-transferrin-selenium) for 24 h, treated with/without PBS or hyaluronic acid (HA) or HC-HA/PTX3±TGFβ1 (10 ng/ml)±Marimastat (10 μM) or ±DAPT (10 μM) or ±both for 0, 5, 15, 30 and 45 minutes before being harvested for immunostaining of CD44-ICD, JNK1, Cyclin D1 and p75NTR and for 5 minutes before being harvested for Western blotting of cytoplasmic and nuclear CD44-ICD, active MT1-MMP, and active γ-secretase after compartmental separation of the cellular components.
Total RNAs were extracted using RNeasy Mini Kit and were reverse transcribed using High Capacity Reverse Transcription Kit (Applied Biosystems). cDNA obtained was amplified by real-time RT-PCR using specific primer-probe mixtures and DNA polymerase in 7000 Real-time PCR System (Thermo-Fisher Scientific, Carlsbad, Calif.). Real-time RT-PCR profile consisted of 10 minutes of initial activation at 95° C., followed by 40 cycles of 15 seconds denaturation at 95° C., and 1 min annealing and 1 min extension at 60° C. The genuine identity of each PCR product was confirmed by the size determination using 2% agarose gels followed by ethidium bromide staining together with PCR marker according to EC3 Imaging System (BioImaging System, Upland, Calif.).
The Quantikine Human ELISA Kits of TGFβs were used for determination of TGFβs following the manufacturer's instructions (R and D Systems, Minneapolis, Minn.).
HCF, induced human corneal endothelial cells (HCEC), and HCEC monolayer cultures were air-dried and fixed in 4% formaldehyde, pH 7.0, for 15 min at room temperature, rehydrated in PBS, incubated with 0.2% Triton X-100 for 15 min, and rinsed three times with PBS for 5 min each. After incubation with 2% BSA to block non-specific staining for 30 min, they were incubated with the desired first antibody (all at 1:50 dilution) for 16 h at 4° C. After three washes with PBS, they were incubated with corresponding Alexa-Fluor-conjugated secondary IgG (all 1:100 dilutions) for 60 min. The samples were then counterstained with Hoechst 33342 and analyzed with Zeiss LSM 700 confocal microscope (Thornhood, N.Y.). Corresponding mouse and rabbit sera were used as negative controls for primary monoclonal and polyclonal antibodies, respectively. […]
(ELISA stands for enzyme-linked immunosorbent assay.)

Setting [5] is: HCF on HC-HA/PTX3 with CXCR4 inhibitor.
Where [6] appears, read: soluble HC-HA/PTX3 with AMD3100.

With `c1cc(CN2CCCNCCNCCCNCC2)ccc1CN1CCCNCCNCCCNCC1` [AMD3100], in assay [1] (setting [5]), the “cell aggregation, mRNA overexpression of SDF1 and CXCR4, CXCR4 nuclear translocation” value is “completely attenuated”; the keratocan protein expression entry was “blockade”; the “transcript expression of BMP4, BMP6, BMPR1A, BMPR1B, BMPR2 and nuclear translocation of pSMAD1/5” value was “completely nullified”. Also, in assay [2] (with AMD3100), the “aggregation and expression of SDF1, CXCR4, BMP4 and BMP6 induced by HC-HA/PTX3” value is “completely blocked”; the “nuclear translocation of CXCR4 and pSMAD1/5” value is “eliminated”. Also, the “immunostaining of SDF-1” value in assay [3] (after addition of AMD3100) is recorded as “became negative”. In assay [3] (setting [6]), the “Pax6, p75NTR, NGF, Musashi-1, Msx-1 and FoxD3 transcripts” value is listed as “significant downregulation”; the “immunofluorescence staining pattern of CXCR4” value is reported as “reverted to that of 3D MG”; the “staining of pSmad1/5/8” value is recorded as “deactivated to cytoplasmic staining”. For the same molecule, the “transcript levels of BMP2, BMP4 and BMP6” value in assay [3] (soluble HC-HA/PTX3 with AMD3100, throughout 48 h) is “aborted”. For the same molecule, in assay [3] (with AMD3100), the “nuclear Pax6 staining promoted by soluble HC-HA/PTX3” value is “aborted”. The “cell aggregation promoted by soluble HC-HA/PTX3” value in assay [3] (with AMD3100 20 μg/mL, 60 min) is recorded as “completed aborted”. For the same molecule, the “upregulation of SDF-1 transcript by soluble HC-HA/PTX3” value in assay [3] (with AMD3100, 24 h) is “completely abolished”. For the same molecule, the “upregulation of CXCR4 transcript by soluble HC-HA/PTX3” value in assay [3] (24 h) is reported as “significantly downregulated”. The “upregulation of CXCR4 transcript by soluble HC-HA/PTX3” value in assay [3] (48 h) is reported as “completely aborted”.

Take `c1ccc2c(-c3cnn4cc(-c5ccc(N6CCNCC6)cc5)cnc34)ccnc2c1` [LDN-193189]: the “transient nuclear translocation of CXCR4 and nuclear Pax6 staining” value in assay [3] (BMP signaling suppressed) was “not affected”. For the same molecule, the “cell aggregation by soluble HC-HA/PTX3” value in assay [3] (BMP signaling suppressed, compared to scRNA control) is recorded as “not affect”. Further, in assay [3] (BMP signaling suppressed, throughout 48 h), the “expression level of CXCR4 and SDF-1” value is recorded as “no significant difference”.

With `NC(=O)c1ccc(-c2nc(-c3ccc4c(c3)OCO4)c(-c3ccccn3)[nH]2)cc1` [SB431542], the “BMP signaling and keratocan mRNA and protein expression” value in assay [1] (HCF on HC-HA/PTX3 with BMP inhibitor) is given as “completely inhibited”. Moreover, the “aggregation, expression of SDF1 and CXCR4 and nuclear translocation of CXCR4” value in assay [2] (HC-HA/PTX3 with SB431542) is “did not affect”. Besides, the “expression of BMP4 and BMP6 and nuclear translocation of pSMAD1/5 induced by HC-HA/PTX3” value in assay [2] (with SB431542) is “completely inhibited”.

For the molecule “TGFβ1: exogenous transforming growth factor β1, 10 ng/ml challenge”, the “NC marker mRNA, p75NTR protein and p75NTR nuclear translocation” value in assay [4] is given as “upregulated on plastic”.
